Data from patent US9469863B2, “Aminoglycoside antibiotics, process for producing the same, and pharmaceutical use thereof” (MEIJI SEIKA KAISHA, LTD., priority 2007, dated 2016).
Converted amounts (≈) assume the structure as drawn.

How the values were obtained:
[1] = system: Acinetobacter calcoaceticus ATCC23055; assay: Antimicrobial activity, MIC by agar dilution method; assay type: cell-based; details: Mueller-Hinton agar, 37° C., 18 to 20 hr
Protocol: (§1) The antimicrobial activity of 2-hydroxykanamycin B and 2-hydroxykanamycin C was measured as the minimum inhibitory concentration (MIC) by an agar dilution method. Test bacteria which had been cultivated overnight in a growth medium were adjusted to 10^6 cells/ml, and one platinum loop thereof was inoculated in a Mueller-Hinton agar medium containing 2-hydroxykanamycin B or 2-hydroxykanamycin C (manufactured by Difco Laboratories Inc.), followed by cultivation at 37° C. for 18 to 20 hr.

[2] = system: Escherichia coli ATCC25922; assay: as above; assay type: cell-based; details: Mueller-Hinton agar, 37° C., 18 to 20 hr
Protocol: as §1

[3] = system: Pseudomonas aeruginosa PA01; assay: as above; assay type: cell-based; details: Mueller-Hinton agar, 37° C., 18 to 20 hr
Protocol: as §1

[4] = system: Staphylococcus aureus 209P JC-1; assay: as above; assay type: cell-based; details: Mueller-Hinton agar, 37° C., 18 to 20 hr
Protocol: as §1

[5] = system: Staphylococcus epidermidis ATCC14990; assay: as above; assay type: cell-based; details: Mueller-Hinton agar, 37° C., 18 to 20 hr
Protocol: as §1

[6] = system: Enterococcus faecalis ATCC29212; assay: as above; assay type: cell-based; details: Mueller-Hinton agar, 37° C., 18 to 20 hr
Protocol: as §1

[7] = system: Staphylococcus aureus ATCC29213; assay: as above; assay type: cell-based; details: Mueller-Hinton agar, 37° C., 18 to 20 hr
Protocol: as §1

[8] = system: Bacillus subtilis ATCC6633; assay: as above; assay type: cell-based; details: Mueller-Hinton agar, 37° C., 18 to 20 hr
Protocol: as §1

[9] = system: Salmonella typhimurium ATCC13311; assay: as above; assay type: cell-based; details: Salmonella enterica, Mueller-Hinton agar, 37° C., 18 to 20 hr
Protocol: as §1

[10] = system: Enterococcus faecium ATCC19434; assay: as above; assay type: cell-based; details: Mueller-Hinton agar, 37° C., 18 to 20 hr
Protocol: as §1

[11] = Physicochemical properties: solubility

SMILES	MIC [1]	MIC [2]	MIC [3]	MIC [4]	MIC [5]	MIC [6]	MIC [7]	MIC [8]	MIC [9]	MIC [10]	Solubility ([11]; in chloroform)	Solubility ([11]; in ethyl acetate)	Solubility ([11]; in water)
NCC1OC(OC2C(N)C(O)C(N)C(OC3OC(CO)C(O)C(N)C3O)C2O)C(N)C(O)C1O (centres unmarked) [2-Hydroxykanamycin B, 2-hydroxykanamycin B]	1 µg/mL (≈ 2 µM)	4 µg/mL (≈ 8.01 µM)	128 µg/mL (≈ 256 µM)	2 µg/mL (≈ 4 µM)	1 µg/mL (≈ 2 µM)	64 µg/mL (≈ 128 µM)	2 µg/mL (≈ 4 µM)	0.5 µg/mL (≈ 1 µM)	1 µg/mL (≈ 2 µM)	64 µg/mL (≈ 128 µM)	insoluble	insoluble	soluble
NC1C(O)C(CO)OC(OC2C(N)C(O)C(N)C(OC3OC(CO)C(O)C(O)C3N)C2O)C1O (centres unmarked) [2-Hydroxykanamycin C, 2-hydroxykanamycin C]	32 µg/mL (≈ 63.9 µM)	128 µg/mL (≈ 256 µM)	> 128 µg/mL	128 µg/mL (≈ 256 µM)	32 µg/mL (≈ 63.9 µM)	> 128 µg/mL	128 µg/mL (≈ 256 µM)	16 µg/mL (≈ 32 µM)	32 µg/mL (≈ 63.9 µM)	> 128 µg/mL	insoluble	insoluble	soluble
